From patent US10130830B2, “Preservative systems comprising cationic surfactants” (Laboratorios Miret, S.A., priority 2005, dated 2018)
“And” between values parts separate entries of the source, which are not always exact repeats. Equal values may be shown once.

Columns and labels:
[1] = Concentration of LAE in soaked chickpeas (HPLC); assay type: physicochemical; details: Example 13, soaked chickpeas; for Concentration of LAE (HPLC method) expressed as % of initial dose, mean / Concentration of LAE (HPLC method) expressed as % of initial dose: LAE 0.2 g/kg in soaking water; for Concentration of LAE (HPLC method) expressed as % of initial dose, mean: mean of triplicate; for Concentration of LAE (HPLC method) expressed as % of initial dose: samples 1-3, monohydrochloride
Procedure: (4) Determination of Preservative Action in Soaked Chick-peas.
Chickpeas are the principal ingredients in a lot of ready-to-eat meals. Before cooking them, chickpeas have to be soaked in water at room temperature for 24 hours. During this period, fermentation processes may occur and therefore, chickpeas would not be suitable for eating. The soaking process cannot be made at refrigeration temperatures, because the structure of the chickpeas could be damaged.
• 1. Chickpeas were soaked in water for 24 hours at 30° C. and 50% HR (in treated samples preservative was added at this point); and • 2. after 24 hours the chickpeas were strained. Analysis • Samples were analysed (aerobic total count and concentration of the cationic surfactant) by triplicate for 24 hours. • Aerobic total count was analysed by stomaching 25 g of chickpeas in 225 g of buffered peptone water. Dilutions were made in buffered peptone water. Tryptone Soya Agar was harvested with each dilution and incubated at 35° C. for 48 hours. • Average values in log cfu/g of three samples per treatment and day of analysis were calculated. • LAE was analysed by HPLC using an internally validated method.

aerobic total count = assay: Preservative action in cooked chicken breast, aerobic total count; assay type: cell-based; details: for counts (aerobic total count): for 5 weeks
Procedure: (2) Determination of Preservative Action in Chicken Breast. Process of Preparation • 1. Fresh chicken breast was diced to pieces • 2. Brine (8.70% sodium chloride and 4.35% tripolyphosphate in water) was added to the fresh chicken in an amount of 11.5 g brine per 88.5 g meat in the control preparation and 11.5 g brine and 88.4 g meat in the preparations treated with preservative. • 3. Brine and meat were mixed during 15 minutes, in the preparations treated with preservative the preservative was added after 14 minutes in an amount of 0.2 g/kg. • 4. Vacuum refrigerate tumbling was made during 30 minutes. • 5. Samples were vacuum-packed in sterile bags and they were cooked at 85° C. for 30 minutes. • 6. The cooked chicken was refrigerated at 4° C. • 7. The cooked chicken was diced in irregular shapes. • 8. Then, the nuggets were stored at 10° C. in sterile vacuum-packed bags. Analysis […] Dilutions were made in buffered peptone water. Tryptone Soya Agar was harvested with each dilution and incubated at 35° C. for 48 hours. The mean value in log cfu/g of three samples per treatment and day of analysis was calculated.

## CCCCCCCCCCCC(=O)N[C@@H](CCCN=C(N)N)C(=O)OCC.Cl [LAE, ethyl ester of the lauramide of the arginine monohydrochloride]
[1]; 0 hours
  Concentration of LAE (HPLC method) expressed as % of initial dose, mean: 100 % of initial dose
  Concentration of LAE (HPLC method) expressed as % of initial dose: 100 % of initial dose and 101 % of initial dose
[1]; 4 hours
  Concentration of LAE (HPLC method) expressed as % of initial dose, mean: 100 % of initial dose
  Concentration of LAE (HPLC method) expressed as % of initial dose: 101 % of initial dose and 99 % of initial dose and 100 % of initial dose
[1]; 8 hours
  Concentration of LAE (HPLC method) expressed as % of initial dose, mean: 98 % of initial dose
  Concentration of LAE (HPLC method) expressed as % of initial dose: 97 % of initial dose and 98 % of initial dose and 99 % of initial dose
[1]; 16 hours
  Concentration of LAE (HPLC method) expressed as % of initial dose, mean: 95 % of initial dose
  Concentration of LAE (HPLC method) expressed as % of initial dose: 95 % of initial dose and 96 % of initial dose
[1]; 24 hours
  Concentration of LAE (HPLC method) expressed as % of initial dose, mean: 93 % of initial dose
  Concentration of LAE (HPLC method) expressed as % of initial dose: 93 % of initial dose and 92 % of initial dose and 94 % of initial dose
[1]; after 24 hours
  hydrolysis of LAE: ~10 % of the original dose
Aerobic total count; Example 9, cooked chicken, 0.2 g/kg, day 0, mean of triplicate
  aerobic total count, mean: 2.0 log cfu/g
Aerobic total count; Example 9, cooked chicken, 0.2 g/kg, day 0, samples 1-3
  aerobic total count: 2.0 log cfu/g
Aerobic total count; Example 9, cooked chicken, 0.2 g/kg, day 7, mean of triplicate
  aerobic total count, mean: 2.0 log cfu/g
Aerobic total count; Example 9, cooked chicken, 0.2 g/kg, day 7, samples 1-3
  aerobic total count: 2.0 log cfu/g
Aerobic total count; Example 9, cooked chicken, 0.2 g/kg, day 14, mean of triplicate
  aerobic total count, mean: 2.3 log cfu/g
Aerobic total count; Example 9, cooked chicken, 0.2 g/kg, day 14, samples 1-3, monohydrochloride
  aerobic total count: 2.0 log cfu/g and 2.5 log cfu/g and 2.3 log cfu/g
Aerobic total count; Example 9, cooked chicken, 0.2 g/kg, day 21, mean of triplicate
  aerobic total count, mean: 2.8 log cfu/g
Aerobic total count; Example 9, cooked chicken, 0.2 g/kg, day 21, samples 1-3, monohydrochloride
  aerobic total count: 3.0 log cfu/g and 2.8 log cfu/g and 2.6 log cfu/g
Aerobic total count; Example 9, cooked chicken, 0.2 g/kg, day 28, mean of triplicate
  aerobic total count, mean: 3.3 log cfu/g
Aerobic total count; Example 9, cooked chicken, 0.2 g/kg, day 28, samples 1-3
  aerobic total count: 3.1 log cfu/g
Aerobic total count; Example 9, cooked chicken, 0.2 g/kg, day 28, samples 1-3, monohydrochloride
  aerobic total count: 3.2 log cfu/g and 3.5 log cfu/g
Aerobic total count; Example 9, cooked chicken, 0.2 g/kg, day 35, mean of triplicate
  aerobic total count, mean: 3.6 log cfu/g
Aerobic total count; Example 9, cooked chicken, 0.2 g/kg, day 35, samples 1-3
  aerobic total count: 3.6 log cfu/g
Aerobic total count; Example 9, cooked chicken, 0.2 g/kg, day 35, samples 1-3, monohydrochloride
  aerobic total count: 3.8 log cfu/g and 3.3 log cfu/g
Aerobic total count; Example 9, cooked chicken, 0.2 g/kg, day 42, mean of triplicate
  aerobic total count, mean: 4.1 log cfu/g
Aerobic total count; Example 9, cooked chicken, 0.2 g/kg, day 42, samples 1-3, monohydrochloride
  aerobic total count: 4.0 log cfu/g and 4.3 log cfu/g and 4.1 log cfu/g
Aerobic total count; Example 9, cooked chicken, 0.2 g/kg, day 49, mean of triplicate
  aerobic total count, mean: 5.0 log cfu/g
Aerobic total count; Example 9, cooked chicken, 0.2 g/kg, day 49, samples 1-3, monohydrochloride
  aerobic total count: 5.1 log cfu/g and 4.7 log cfu/g and 5.2 log cfu/g
Aerobic total count; Example 9, cooked chicken, 0.2 g/kg, day 56 (8 weeks), mean of triplicate
  aerobic total count, mean: 5.4 log cfu/g
Aerobic total count; Example 9, cooked chicken, 0.2 g/kg, day 56, samples 1-3, monohydrochloride
  aerobic total count: 5.3 log cfu/g and 5.2 log cfu/g and 5.5 log cfu/g
Aerobic total count; Example 9, cooked chicken, 0.2 g/kg
  counts (aerobic total count): below 4.0 log cfu/g
Aerobic total count; Example 14, cooked chicken, LAE 0.2 g/kg, day 0, mean of triplicate
  aerobic total count, mean: 2.0 log cfu/g
Aerobic total count; Example 14, cooked chicken, LAE 0.2 g/kg, day 7, mean of triplicate
  aerobic total count, mean: 2.0 log cfu/g
Aerobic total count; Example 14, cooked chicken, LAE 0.2 g/kg, day 7, samples 1-3
  aerobic total count: 2.0 log cfu/g
Aerobic total count; Example 14, cooked chicken, LAE 0.2 g/kg, day 14, mean of triplicate
  aerobic total count, mean: 2.3 log cfu/g
Aerobic total count; Example 14, cooked chicken, LAE 0.2 g/kg, day 14, samples 1-3, monohydrochloride
  aerobic total count: 2.2 log cfu/g and 2.6 log cfu/g
Aerobic total count; Example 14, cooked chicken, LAE 0.2 g/kg, day 21, mean of triplicate
  aerobic total count, mean: 2.9 log cfu/g
Aerobic total count; Example 14, cooked chicken, LAE 0.2 g/kg, day 21, samples 1-3, monohydrochloride
  aerobic total count: 3.0 log cfu/g and 2.8 log cfu/g
Aerobic total count; Example 14, cooked chicken, LAE 0.2 g/kg, day 28, mean of triplicate
  aerobic total count, mean: 3.4 log cfu/g
Aerobic total count; Example 14, cooked chicken, LAE 0.2 g/kg, day 28, samples 1-3
  aerobic total count: 3.4 log cfu/g
Aerobic total count; Example 14, cooked chicken, LAE 0.2 g/kg, day 28, samples 1-3, monohydrochloride
  aerobic total count: 3.2 log cfu/g and 3.5 log cfu/g
Aerobic total count; Example 14, cooked chicken, LAE 0.2 g/kg, day 35, mean of triplicate
  aerobic total count, mean: 3.8 log cfu/g
Aerobic total count; Example 14, cooked chicken, LAE 0.2 g/kg, day 35, samples 1-3, monohydrochloride
  aerobic total count: 3.6 log cfu/g and 3.8 log cfu/g and 3.9 log cfu/g
Aerobic total count; Example 14, cooked chicken, LAE 0.2 g/kg, day 42, mean of triplicate
  aerobic total count, mean: 4.0 log cfu/g
Aerobic total count; Example 14, cooked chicken, LAE 0.2 g/kg, day 42, samples 1-3, monohydrochloride
  aerobic total count: 4.0 log cfu/g and 4.1 log cfu/g
Aerobic total count; Example 14, cooked chicken, LAE 0.2 g/kg, day 49, mean of triplicate
  aerobic total count, mean: 5.1 log cfu/g
Aerobic total count; Example 14, cooked chicken, LAE 0.2 g/kg, day 49, samples 1-3, monohydrochloride
  aerobic total count: 5.3 log cfu/g and 4.9 log cfu/g and 5.0 log cfu/g
Aerobic total count; Example 14, cooked chicken, LAE 0.2 g/kg, day 56 (8 weeks), mean of triplicate
  aerobic total count, mean: 5.6 log cfu/g
Aerobic total count; Example 14, cooked chicken, LAE 0.2 g/kg, day 56, samples 1-3, monohydrochloride
  aerobic total count: 5.2 log cfu/g
Aerobic total count; Example 14, cooked chicken, LAE 0.2 g/kg
  counts (aerobic total count): below 4.0 log cfu/g
Aerobic total count; Example 16, cooked chicken, 0.20 g of LAE/kg, day 0, mean of triplicate
  aerobic total count, mean: 2.0 log cfu/g
Aerobic total count; Example 16, cooked chicken, 0.20 g of LAE/kg, day 7, mean of triplicate
  aerobic total count, mean: 2.0 log cfu/g
Aerobic total count; Example 16, cooked chicken, 0.20 g of LAE/kg, day 14, mean of triplicate
  aerobic total count, mean: 2.2 log cfu/g
Aerobic total count; Example 16, cooked chicken, 0.20 g of LAE/kg, day 21, mean of triplicate
  aerobic total count, mean: 2.8 log cfu/g
Aerobic total count; Example 16, cooked chicken, 0.20 g of LAE/kg, day 28, mean of triplicate
  aerobic total count, mean: 3.2 log cfu/g
Aerobic total count; Example 16, cooked chicken, 0.20 g of LAE/kg, day 35, mean of triplicate
  aerobic total count, mean: 3.6 log cfu/g
Aerobic total count; Example 16, cooked chicken, 0.20 g of LAE/kg, day 42, mean of triplicate
  aerobic total count, mean: 4.3 log cfu/g
Aerobic total count; Example 16, cooked chicken, 0.20 g of LAE/kg, day 49, mean of triplicate
  aerobic total count, mean: 4.9 log cfu/g
Aerobic total count; Example 16, cooked chicken, 0.20 g of LAE/kg, day 56 (8 weeks), mean of triplicate
  aerobic total count, mean: 5.5 log cfu/g
Aerobic total count; Example 16, cooked chicken, LAE 0.2 g/kg
  counts (aerobic total count): below 4.0 log cfu/g
Aerobic total count; Example 18, cooked chicken, 0.2 g of LAE/kg, day 0, mean of triplicate
  aerobic total count, mean: 2.0 log cfu/g
Aerobic total count; Example 18, cooked chicken, 0.2 g of LAE/kg, day 7, mean of triplicate
  aerobic total count, mean: 2.0 log cfu/g
Aerobic total count; Example 18, cooked chicken, 0.2 g of LAE/kg, day 14, mean of triplicate
  aerobic total count, mean: 2.4 log cfu/g
Aerobic total count; Example 18, cooked chicken, 0.2 g of LAE/kg, day 21, mean of triplicate
  aerobic total count, mean: 2.9 log cfu/g
Aerobic total count; Example 18, cooked chicken, 0.2 g of LAE/kg, day 28, mean of triplicate
  aerobic total count, mean: 3.4 log cfu/g
Aerobic total count; Example 18, cooked chicken, 0.2 g of LAE/kg, day 35, mean of triplicate
  aerobic total count, mean: 3.7 log cfu/g
Aerobic total count; Example 18, cooked chicken, 0.2 g of LAE/kg, day 42, mean of triplicate
  aerobic total count, mean: 4.1 log cfu/g
Aerobic total count; Example 18, cooked chicken, 0.2 g of LAE/kg, day 49, mean of triplicate
  aerobic total count, mean: 5.2 log cfu/g
Aerobic total count; Example 18, cooked chicken, 0.2 g of LAE/kg, day 56 (8 weeks), mean of triplicate
  aerobic total count, mean: 5.7 log cfu/g
Aerobic total count; Example 18, cooked chicken, LAE 0.2 g/kg
  counts (aerobic total count): below 4.0 log cfu/g
